Measurements reported in paper PMC5381946 (PLoS Pathogens, 2017).

Legend:
KSHV [1] = experiment: KSHV lytic DNA replication (intracellular viral genomic DNA, real-time PCR) in TPA-induced BCBL-1 cells; format: cell-based, Kaposi's sarcoma-associated herpesvirus (KSHV); details: Human gammaherpesvirus 8, BCBL1, compound added 3 h post-induction, intracellular viral genomic DNA at 48 h post-induction
[2] = tested on: KSHV-induced angiogenesis; experiment: Murine Matrigel plug assay of angiogenesis by KSHV-infected PDLSCs; format: in vivo; details: C10 in varying concentrations mixed with Matrigel; C57BL/6 mice; day 7
Text: Next, we employed a murine Matrigel plug assay to examine the ability of C10 to inhibit angiogenesis […]. KSHV-infected and mock-infected PDLSCs were mixed with Matrigel (without any cytokines) and implanted into C57BL/6 mice. In day 7, the matrigel plugs were stripped and examined for new blood vessel formation. […] The effect of C10 on KSHV-mediated angiogenesis in the […] assay was quantitated by measuring the hemoglobin content after homogenizing the Matrigel plugs using Drabkin’s reagent. The result, shown in Fig 6C (right panel), is consistent with that of in vitro Matrigel tubule formation assay.
Female C57BL/6 mice (4 to 6 weeks old) were obtained from the Sun Yat-sen University Animal Center. Five animals were used per treatment group. 5-10x10^6 cells in 100–200 μl medium were prepared and thoroughly mixed with 500 μl matrigels to total volume of 600–800 μl, and subsequently implanted to mice by inguinal injection. After even days, the mice were killed and matrigel plugs were removed. The Matrigel plugs were photographed and subsequently dissolved in 1 ml Dispase reagent for 16 h at 37°C. After removal of debris by centrifugation, hemoglobin was qualified using Drabkin's reagent (Sigma-Aldrich).

APE1 [3] = molecular target: T1, APE1 (Homo sapiens, UniProt P27695); experiment: Surface plasmon resonance (SPR) binding to APE1
APE1 [4] = molecular target: T1, APE1; experiment: Differential scanning fluorimetry (DSF) thermal shift of APE1; details: APE1 2 μM, incubated with compound at 37°C for 30 min; melting curves shifted to the left
APE1 redox activity = molecular target: T2, APE1 redox activity (Homo sapiens, UniProt P27695); experiment: EMSA-based assay for APE1 redox activity (APE1-dependent AP-1 DNA binding); format: biochemical; details: reduced APE1 0.1 μM, purified c-jun/c-fos
T2 construct: 6xHis (N); made in house; host or cells: E. coli (Roseta)

KSHV [5] = tested on: KSHV
RTA promoter = format: cell-based, human
[6] = Cytotoxicity by Trypan blue exclusion in BCBL-1 cells; details: human
KSHV [7] = experiment: microbe, parasite or virus in culture; details: Human gammaherpesvirus 8, 3 h, read-out: EC50 for virion production
KSHV-infected PDLSCs [8] = experiment: ELISA of angiogenic growth factors secreted by KSHV-infected PDLSCs; format: cell-based, human; details: KSHV-PDLSCs treated 24 hours, media changed, collected after a further 24 hours
Text: (§1) KS has been considered as a cytokine disease as KS lesions over-produce cytokines, especially angiogenic growth factors, that contribute to the major pathogenic features of KS [53, 54]. In the early stage, KS is not a real sarcoma but an angiohyperplastic-inflammatory lesion mediated by inflammatory cytokines and angiogenic factors. The finding that the paracrine-regulated angiogenesis requires the redox function of APE1 (Fig 2) prompted us to further investigate if blockade of APE1 redox function by C10 could reduce cytokine and angiogenic factor production. […] Then the culture media were collected and examined for the expression of VEGF-A and IL-6 by ELISA.
(§2) Levels of VEGF-A, IL-6 and IL-8 in cell culture supernatants were determined using specific ELISA kits for human VEGF-A (eBioscience), IL-6 (BD) and IL-8 (Xin Bosheng, China) according to the manufacturer instructions.

KSHV-infected HUVECs = experiment: ELISA of VEGF-A, IL-6 and IL-8 secreted by KSHV-infected HUVECs; format: cell-based, human; details: S3 Fig
Text: as §1, §2
Supplementary file ppat.1006289.s003.pdf: S3 Fig Effects of C10 on KSHV-mediated secretion of VEGF-A, IL-6 and IL-8 from HUVECs. KSHV-infected HUVECs were treated with either C10 for 24 hours. After changing media to remove C10 from the media, cells were continued to culture for 24 hours. Then the culture media were collected and examined for the expression of VEGF-A, IL-6 and IL-8 by ELISA. (PDF) Click here for additional data file.

AP-1 promoter = experiment: AP-1 promoter-luciferase reporter assay in 293T cells; format: cell-based, human; details: TPA induction, varying C10 concentrations
KSHV [9] = experiment: KSHV virion production (encapsidated viral DNA in media) from TPA-induced BCBL-1 cells; format: cell-based, Kaposi's sarcoma-associated herpesvirus (KSHV); details: for EC50: Human gammaherpesvirus 8, BCBL1, 120 h, TPA-induced BCBL-1, encapsidated viral DNA in media 5 days post-induction, read-out: EC50 for blocking KSHV virion production
[10] = molecular target: APE1 exonuclease activity (Homo sapiens, UniProt P27695); experiment: Exonuclease assay for APE1 C-terminal (DNA base excision) activity; format: biochemical
KSHV-infected PDLSCs [11] = experiment: In vitro Matrigel tube formation assay with KSHV-infected PDLSCs; details: for paracrine-mediated angiogenesis (tubulogenesis of PDLSCs in conditioned media): conditioned media from KSHV-infected PDLSCs treated 24 hours with compound
[12] = Cytotoxicity (MTT assay) in iSLK.219 cells; format: cell-based; details: human
Text: The medium was replaced with DMSO.
(PDF) Click here for additional data file.

KSHV-infected PDLSCs [13] = experiment: Matrigel-transwell cell invasion assay with KSHV-infected PDLSCs; details: C10 in different concentrations
KSHV [14] = experiment: KSHV lytic DNA replication in doxycycline-induced iSLK.219 cells; format: cell-based, Kaposi's sarcoma-associated herpesvirus (KSHV); details: Human gammaherpesvirus 8, doxycycline 3 h, then C10, read-out: IC50 for viral lytic DNA replication
retinal angiogenesis = tested on: retinal angiogenesis; parameters: method as in PMID 20937296, PMID 24624338; details: in vitro and in an animal model; cited from earlier work
in vitro = details: human
pancreatic cancer = tested on: pancreatic cancer; parameters: method as in PMID 21700832; details: cell lines and pancreatic cancer xenograft model in mice; cited from earlier work
[15] = parameters: method as in PMID 18627350; details: cited from earlier work

APE1 exonuclease activity, sequence (P27695 whole entry): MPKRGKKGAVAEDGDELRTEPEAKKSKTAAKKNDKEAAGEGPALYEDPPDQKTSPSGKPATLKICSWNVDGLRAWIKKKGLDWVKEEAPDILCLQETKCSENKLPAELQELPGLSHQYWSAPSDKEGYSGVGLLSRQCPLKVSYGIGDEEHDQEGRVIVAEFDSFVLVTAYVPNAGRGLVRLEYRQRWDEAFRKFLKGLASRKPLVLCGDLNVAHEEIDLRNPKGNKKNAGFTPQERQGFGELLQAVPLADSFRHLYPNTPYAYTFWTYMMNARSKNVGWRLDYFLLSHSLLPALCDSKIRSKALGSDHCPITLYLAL
T1 sequence (P27695 whole entry): as above
T2 sequence (P27695 whole entry): as above

Q: Which IC50 (KSHV [1]) does the source give for `Cc1ccc(/C=C/C(=O)CC(=O)/C=C/c2ccc(C)o2)o1` [C10, (1E,6E)-1,7-bis(5-methylfuran-2-yl) hepta-1-6-diene-3,5–dione] here?
A: Its IC50 is 4.6 µM.

Q: What about the “KSHV-induced angiogenesis in Matrigel plug (blood vessel formation, hemoglobin content)” value [2] of the same molecule?
A: The value was “dramatically inhibited in a dose dependent manner”.

Q: And the Kd (APE1 [3])?
A: Its Kd is 0.189 µM.

Q: And the “shift of the Tm of APE1 (DSF)” value (APE1 [4])?
A: Its value is 1.3 °C.

Q: And the IC50 (APE1 redox activity)?
A: The IC50 was 17 µM.

Q: What about the “SI (CC50 / EC50)” value (KSHV [5]) of the same molecule?
A: The value was 23.4.

Q: What about the “TPA-induced RTA promoter activity (luciferase)” value (RTA promoter) of the same molecule?
A: The value was “able to block”.

Q: And the “auto-regulation of the RTA promoter activity by RTA (luciferase)” value (RTA promoter)?
A: Its value is “able to block auto-regulation of the RTA promoter activity”.

Q: What about the CC50 at 48 h [6] of the same molecule?
A: The CC50 at 48 h was 26.4 µM.

Q: What about the EC50 (KSHV [7]) of the same molecule?
A: The EC50 was 3.2 µM.

Q: And the “levels of secreted angiogenic growth factors (VEGF-A, IL-6) by ELISA” value (KSHV-infected PDLSCs [8])?
A: Its value is “able to reduce the levels of these angiogenic growth factors”.

Q: And the “KSHV-induced productions of VEGF-A, IL-6 and IL-8 (ELISA)” value (KSHV-infected HUVECs)?
A: The value was “inhibited by C10”.

Q: And the “TPA-induced AP-1 promoter activity (luciferase)” value (AP-1 promoter)?
A: The value was “able to block”.

Q: What about the “fold by which EC50 (virion release) is lower than IC50 (intracellular viral DNA replication)” value (KSHV [9]; BCBL-1) of the same molecule?
A: Its value is 29 fold.

Q: And the “selectivity index (CC50 / EC50)” value (KSHV [9]; BCBL-1)?
A: Its value is 165.

Q: And the EC50 (KSHV [9])?
A: The EC50 was 0.16 µM.

Q: What about the “effect on APE1 exonuclease activity” value ([10]; up to 100 μM of C10) of the same molecule?
A: Its value is “unaffected”.

Q: What about the “paracrine-mediated angiogenesis (tubulogenesis of PDLSCs in conditioned media)” value (KSHV-infected PDLSCs [11]) of the same molecule?
A: The value was “capable of inhibiting paracrine-mediated angiogenesis”.

Q: What about the CC50 at 48 h [12] of the same molecule?
A: The CC50 at 48 h was 75 µM.

Q: What about the “cell migration and invasion of KSHV-PDLSC (Transwell)” value (KSHV-infected PDLSCs [13]) of the same molecule?
A: The value was “able to block cell migration and invasion”.

Q: What about the IC50 (KSHV [14]) of the same molecule?
A: Its IC50 is 5.8 µM.

Q: For `CCCCCCCCC/C(=C\C1=C(C)C(=O)C(OC)=C(OC)C1=O)C(=O)O` [E3330], which IC50 (KSHV [1]) is on record?
A: The IC50 was 17.7 µM.

Q: And the retinal angiogenesis (retinal angiogenesis)?
A: The retinal angiogenesis was “blocks retinal angiogenesis in vitro and in an animal model”.

Q: And the “levels of secreted angiogenic growth factors (VEGF-A, IL-6) by ELISA” value (KSHV-infected PDLSCs [8])?
A: The value was “able to reduce the levels of these angiogenic growth factors”.

Q: What about the EC50 (KSHV [9]) of the same molecule?
A: The EC50 was 8.5 µM.

Q: What about the CC50 at 48 h (in vitro) of the same molecule?
A: Its CC50 at 48 h is 112 µM.

Q: What about the “tubulogenesis of KSHV-PDLSC (total tube length)” value (KSHV-infected PDLSCs [11]; compound present on Matrigel at different concentrations) of the same molecule?
A: The value was “showed inhibitory activity at higher doses”.

Q: What about the “paracrine-mediated angiogenesis (tubulogenesis of PDLSCs in conditioned media)” value (KSHV-infected PDLSCs [11]) of the same molecule?
A: The value was “capable of inhibiting paracrine-mediated angiogenesis”.

Q: And the tumor growth (pancreatic cancer)?
A: The tumor growth was “cause tumor growth inhibition”.

Q: And the cytotoxicity [15]?
A: The cytotoxicity was “low cytotoxicity”.

Q: For `O=c1c(O)c(-c2cc(O)c(O)c(O)c2)oc2cc(O)cc(O)c12` [Myrecetin, reference compound], which “effect on APE1 exonuclease activity” value ([10]; positive control, different concentrations) is on record?
A: Its value is “dose-dependent inhibitory response”.
